In US20110178396A1, “Nicotinamide Derivatives” (CRC FOR BIOMEDICAL IMAGING DEVELOPMENT LTD., priority 2008, published 2011):
One block for each compound: values may come before it.

Tests used:
[1] = HPLC metabolite analysis in plasma, tumour, eye and urine; format: in vivo; conditions: for Percentage Unchanged Tracer: HPLC
[2] = test system: A375 human amelanotic melanoma tumour; experiment: Biodistribution in A375 melanoma tumour bearing mice; format: in vivo, BALB/c nude mice; conditions: for Organ distribution Intestine / Organ distribution Liver / Organ distribution Spleen / Organ distribution Stomach / Organ distribution Thyroid / Organ distribution Tumour: mean ± S.D.
Experimental: Animal experiments were performed in compliance with the NHMRC Australian Code of Practice for the care and use of animals for scientific purposes. Female C57BL/6J black and BALB/c nude albino mice of 5 weeks age were obtained from the Animal Resources Centre, Western Australia. B16F0 murine melanoma cells were originally obtained from European Collection of Cell Cultures (UK) and A375 human amelanotic melanoma cells were originally obtained from American Type Culture Collection (USA). Before transplantation, B16F0 and A375 melanoma cells were maintained as a monolayer in RPMI culture medium supplemented with 10% foetal calf serum and antibiotics and passaged with trypsinisation. Early passages were frozen and stored in liquid nitrogen. Cells were passaged to P=10 and then discarded. Frozen aliquots were grown in a monolayer culture to between 80-95% confluence and for transplantation were trypsinised and washed with Ca^2+ and Mg^2+ free phosphate buffered saline (PBS). For inoculation, B16F0 melanoma cells were resuspended in Ca^2+ and Mg^2+ free PBS at 3 or 5×10^6 viable cells per ml and 0.1 ml was subcutaneously injected at the left flank of 6-7 weeks old C57BL/6J mice. Eleven days later, tumours could be palpated in >98% of inoculated animals. A375 human melanoma cells were resuspended at 1×10^7 viablecells per ml and 0.1 ml was injected subcutaneously at the left flank of 6 weeks old BALB/c nude mice and 25-26 days later tumours could be palpated with ˜60% of inoculated animals developing tumours.
Eleven days (B16F0 melanoma) and 25 days (A375 human melanoma) after tumour transplantation, the [^18F]nicotinamides (0.5-1.5 MBq, 100 μl) and [^123I]nicotinamide (0.37-0.74 MBq, 100 μl) derivatives were injected intravenously via the tail vein into mice (15-18 g). Time points of 1, 3, 6, 24, 48, 72 h after injection were chosen for determining the distribution of each compound in various organs and tissues for the iodine-123 labelled compounds and between 15 min and 6 hours (e.g. 15 min, 30 min, 1 h, 2 h, 4 h or 6 h) were chosen for the ^18F-labelled compounds. At defined times post injection, groups of mice (n=5) were weighed, sacrificed by CO2 administration followed by cervical dislocation and dissected. Selected organs were weighed and their radioactivity measured with a γ-counter. The remaining activity in the carcass was also determined in order to obtain the total activity in the mouse at defined time points. The fraction of injected activity (% ID) in the organ was calculated by comparison with suitable dilutions of the injected dose. Then, the radioactivity concentration in the organ (% ID/g) was found by dividing the % ID for each organ by the weight of the organ.

[3] = A375 tumour bearing mice, 30 min
[4] = A375 tumour, BALB/c nude mice, 1 h, n = 5
[5] = A375 tumour, BALB/c nude mice, 1 h, mean ± SD, n = 5
[6] = A375 tumour, BALB/c nude mice, 6 h, n = 5
[7] = A375 tumour, BALB/c nude mice, 6 h, mean ± SD, n = 5
[8] = A375 tumour, BALB/c nude mice, 24 h, n = 5
[9] = A375 tumour, BALB/c nude mice, 24 h, mean ± SD, n = 5

- Percentage Unchanged Tracer ([1]; Eye, 15 minutes): 100%
- Percentage Unchanged Tracer ([1]; Eye, 60 minutes): 96%
- Percentage Unchanged Tracer ([1]; Eye, 120 minutes): 99%
- form of activity taken up in the tumour and eye ([1]; HPLC analysis at various time points): unchanged [^18F]MEL2 and not metabolites
- Percentage Unchanged Tracer ([1]; Plasma, 15 minutes): 85%
- Percentage Unchanged Tracer ([1]; Plasma, 60 minutes): 79%
- Percentage Unchanged Tracer ([1]; Plasma, 120 minutes): 63%
- Percentage Unchanged Tracer ([1]; Tumour, 15 minutes): 100%
- Percentage Unchanged Tracer ([1]; Tumour, 60 minutes): 100%
- Percentage Unchanged Tracer ([1]; Tumour, 120 minutes): 98%
- Percentage Unchanged Tracer ([1]; Urine, 60 minutes): 90%
- Percentage Unchanged Tracer ([1]; Urine, 120 minutes): 87%
- uptake in tissue (tumour and eyes) ([2]; A375 amelanotic melanoma tumour bearing mice, three hour period): low uptake
- uptake BLADDER [2, 3]: 8.937 % ID/g
- uptake BLOOD [2, 3]: 1.323 % ID/g
- uptake BONE [2, 3]: 1.912 % ID/g
- uptake BRAIN [2, 3]: 1.831 % ID/g
- uptake EYES [2, 3]: 1.704 % ID/g
- uptake GIT [2, 3]: 3.432 % ID/g
- uptake HEART [2, 3]: 1.898 % ID/g
- uptake KIDNEY [2, 3]: 7.103 % ID/g
- uptake LIVER [2, 3]: 6.820 % ID/g
- uptake LUNGS [2, 3]: 2.836 % ID/g
- uptake MUSCLE [2, 3]: 2.125 % ID/g
- uptake SKIN [2, 3]: 2.521 % ID/g
- uptake SPLEEN [2, 3]: 4.093 % ID/g
- uptake STOMACH [2, 3]: 3.795 % ID/g
- uptake THYROID [2, 3]: 2.745 % ID/g
- uptake TUMOUR [2, 3]: 2.633 % ID/g
- uptake URINE [2, 3]: 609.148 % ID/g
- uptake BLADDER ([2]; A375 tumour bearing mice, 1 h): 3.717 % ID/g
- uptake BLOOD ([2]; A375 tumour bearing mice, 1 h): 0.480 % ID/g
- uptake BONE ([2]; A375 tumour bearing mice, 1 h): 0.863 % ID/g
- uptake BRAIN ([2]; A375 tumour bearing mice, 1 h): 0.822 % ID/g
- uptake EYES ([2]; A375 tumour bearing mice, 1 h): 0.626 % ID/g
- uptake GIT ([2]; A375 tumour bearing mice, 1 h): 1.564 % ID/g
- uptake HEART ([2]; A375 tumour bearing mice, 1 h): 0.604 % ID/g
- uptake KIDNEY ([2]; A375 tumour bearing mice, 1 h): 2.032 % ID/g
- uptake LIVER ([2]; A375 tumour bearing mice, 1 h): 2.670 % ID/g
- uptake LUNGS ([2]; A375 tumour bearing mice, 1 h): 0.939 % ID/g
- uptake MUSCLE ([2]; A375 tumour bearing mice, 1 h): 0.865 % ID/g
- uptake SKIN ([2]; A375 tumour bearing mice, 1 h): 1.265 % ID/g
- uptake SPLEEN ([2]; A375 tumour bearing mice, 1 h): 1.351 % ID/g
- uptake STOMACH ([2]; A375 tumour bearing mice, 1 h): 1.899 % ID/g
- uptake THYROID ([2]; A375 tumour bearing mice, 1 h): 1.162 % ID/g
- uptake TUMOUR ([2]; A375 tumour bearing mice, 1 h): 0.920 % ID/g
- uptake URINE ([2]; A375 tumour bearing mice, 1 h): 185.427 % ID/g
- uptake BLADDER ([2]; A375 tumour bearing mice, 2 h): 4.835 % ID/g
- uptake BLOOD ([2]; A375 tumour bearing mice, 2 h): 0.171 % ID/g
- uptake BONE ([2]; A375 tumour bearing mice, 2 h): 0.548 % ID/g
- uptake BRAIN ([2]; A375 tumour bearing mice, 2 h): 0.224 % ID/g
- uptake EYES ([2]; A375 tumour bearing mice, 2 h): 0.238 % ID/g
- uptake GIT ([2]; A375 tumour bearing mice, 2 h): 0.580 % ID/g
- uptake HEART ([2]; A375 tumour bearing mice, 2 h): 0.205 % ID/g
- uptake KIDNEY ([2]; A375 tumour bearing mice, 2 h): 0.650 % ID/g
- uptake LIVER ([2]; A375 tumour bearing mice, 2 h): 0.985 % ID/g
- uptake LUNGS ([2]; A375 tumour bearing mice, 2 h): 0.324 % ID/g
- uptake MUSCLE ([2]; A375 tumour bearing mice, 2 h): 0.280 % ID/g
- uptake SKIN ([2]; A375 tumour bearing mice, 2 h): 0.290 % ID/g
- uptake SPLEEN ([2]; A375 tumour bearing mice, 2 h): 0.434 % ID/g
- uptake STOMACH ([2]; A375 tumour bearing mice, 2 h): 0.748 % ID/g
- uptake THYROID ([2]; A375 tumour bearing mice, 2 h): 0.356 % ID/g
- uptake TUMOUR ([2]; A375 tumour bearing mice, 2 h): 0.254 % ID/g
- uptake URINE ([2]; A375 tumour bearing mice, 2 h): 97.912 % ID/g
- uptake BLADDER ([2]; A375 tumour bearing mice, 3 h): 0.360 % ID/g
- uptake BLOOD ([2]; A375 tumour bearing mice, 3 h): 0.054 % ID/g
- uptake BONE ([2]; A375 tumour bearing mice, 3 h): 0.443 % ID/g
- uptake BRAIN ([2]; A375 tumour bearing mice, 3 h): 0.073 % ID/g
- uptake EYES ([2]; A375 tumour bearing mice, 3 h): 0.110 % ID/g
- uptake GIT ([2]; A375 tumour bearing mice, 3 h): 0.227 % ID/g
- uptake HEART ([2]; A375 tumour bearing mice, 3 h): 0.045 % ID/g
- uptake KIDNEY ([2]; A375 tumour bearing mice, 3 h): 0.197 % ID/g
- uptake LIVER ([2]; A375 tumour bearing mice, 3 h): 0.323 % ID/g
- uptake LUNGS ([2]; A375 tumour bearing mice, 3 h): 0.099 % ID/g
- uptake MUSCLE ([2]; A375 tumour bearing mice, 3 h): 0.108 % ID/g
- uptake SKIN ([2]; A375 tumour bearing mice, 3 h): 0.169 % ID/g
- uptake SPLEEN ([2]; A375 tumour bearing mice, 3 h): 0.103 % ID/g
- uptake STOMACH ([2]; A375 tumour bearing mice, 3 h): 0.302 % ID/g
- uptake THYROID ([2]; A375 tumour bearing mice, 3 h): 0.128 % ID/g
- uptake TUMOUR ([2]; A375 tumour bearing mice, 3 h): 0.096 % ID/g
- uptake URINE ([2]; A375 tumour bearing mice, 3 h): 37.842 % ID/g
Compound: CCN(CC)CCNC(=O)c1ccc(F)nc1 [[^18F]MEL2, 6-Fluoro-N-[2-(diethylamino)ethyl]nicotinamide]
- form excreted in urine ([1]; HPLC analysis, all time points studied): excreted predominately as the unchanged radiotracer

- tumour standardized uptake value (SUVt) ([2]; A375 tumour, BALB/c nude mice, 1 h): 0.7 ± 0.1
- Organ distribution Intestine [2, 4]: 14 ± 2 % ID/organ
- Organ distribution Liver [2, 4]: 2.3 ± 0.2 % ID/organ
- Organ distribution Spleen [2, 4]: 0.16 ± 0.01 % ID/organ
- Organ distribution Stomach [2, 4]: 1.6 ± 0.2 % ID/organ
- Organ distribution Thyroid [2, 4]: 0.40 ± 0.07 % ID/organ
- Organ distribution Tumour [2, 4]: 0.40 ± 0.16 % ID/organ
- Uptake Lung [2, 5]: 1.56 ± 0.2 % ID/g
- uptake BLOOD [2, 5]: 1.4 ± 0.2 % ID/g
- uptake BRAIN [2, 5]: 0.14 ± 0.02 % ID/g
- uptake HEART [2, 5]: 0.8 ± 0.1 % ID/g
- uptake KIDNEY [2, 5]: 1.9 ± 0.3 % ID/g
- uptake LIVER [2, 5]: 2.2 ± 0.4 % ID/g
- uptake TUMOUR [2, 5]: 1.2 ± 0.2 % ID/g
- tumour standardized uptake value (SUVt) ([2]; A375 tumour, BALB/c nude mice, 6 h): 0.9 ± 0.2
- Organ distribution Intestine [2, 6]: 2 ± 1 % ID/organ
- Organ distribution Liver [2, 6]: 0.7 ± 0.2 % ID/organ
- Organ distribution Spleen [2, 6]: 0.03 ± 0.01 % ID/organ
- Organ distribution Stomach [2, 6]: 0.4 ± 0.1 % ID/organ
- Organ distribution Thyroid [2, 6]: 1.0 ± 0.5 % ID/organ
- Organ distribution Tumour [2, 6]: 0.13 ± 0.06 % ID/organ
- Uptake Lung [2, 7]: 0.4 ± 0.2 % ID/g
- uptake BLOOD [2, 7]: 0.5 ± 0.2 % ID/g
- uptake BRAIN [2, 7]: 0.03 ± 0.01 % ID/g
- uptake HEART [2, 7]: 0.18 ± 0.07 % ID/g
- uptake KIDNEY [2, 7]: 0.47 ± 0.17 % ID/g
- uptake LIVER [2, 7]: 0.7 ± 0.3 % ID/g
- uptake TUMOUR [2, 7]: 0.4 ± 0.1 % ID/g
- tumour standardized uptake value (SUVt) ([2]; A375 tumour, BALB/c nude mice, 24 h): 0.3 ± 0.1
- Organ distribution Intestine [2, 8]: 0.04 ± 0.01 % ID/organ
- Organ distribution Liver [2, 8]: 0.09 ± 0.02 % ID/organ
- Organ distribution Spleen [2, 8]: 0.002 % ID/organ
- Organ distribution Stomach [2, 8]: 0.01 ± 0.00 % ID/organ
- Organ distribution Thyroid [2, 8]: 1.4 ± 0.8 % ID/organ
- Organ distribution Tumour [2, 8]: 0.001 % ID/organ
- Uptake Lung [2, 9]: 0.015 ± 0.004 % ID/g
- uptake BLOOD [2, 9]: 0.013 ± 0.002 % ID/g
- uptake BRAIN [2, 9]: 0.002 ± 0.001 % ID/g
- uptake HEART [2, 9]: 0.012 ± 0.003 % ID/g
- uptake KIDNEY [2, 9]: 0.013 ± 0.002 % ID/g
- uptake LIVER [2, 9]: 0.08 ± 0.02 % ID/g
- uptake TUMOUR [2, 9]: 0.007 ± 0.002 % ID/g
Compound: CCN(CC)CCNC(=O)c1cncc(I)c1 [[^123I]11, N-(2-(diethylamino)ethyl)-5-iodonicotinamide]
